From patent US8906888B2, “Low-calcemic 16,23-diene 25-oxime analogs of 1α,25-dihydroxy vitamin D3” (Cytochroma Inc., priority 2005, dated 2014)

Assays:
[1] = target: T1, DBP (vitamin D binding protein) (Homo sapiens, UniProt P02774); experiment: DBP binding assay (human plasma, [3H]-25(OH)D3 displacement); details: human plasma diluted 1:5000; read-out: B50 (DBP binding, displacement of 50 percent [3H]-25(OH)D3)
T1 construct: Human plasma diluted to 1:5000 with Tris buffer/gelatin solution; from tissue; host or cells: human plasma
T1 sequence (P02774 17-474): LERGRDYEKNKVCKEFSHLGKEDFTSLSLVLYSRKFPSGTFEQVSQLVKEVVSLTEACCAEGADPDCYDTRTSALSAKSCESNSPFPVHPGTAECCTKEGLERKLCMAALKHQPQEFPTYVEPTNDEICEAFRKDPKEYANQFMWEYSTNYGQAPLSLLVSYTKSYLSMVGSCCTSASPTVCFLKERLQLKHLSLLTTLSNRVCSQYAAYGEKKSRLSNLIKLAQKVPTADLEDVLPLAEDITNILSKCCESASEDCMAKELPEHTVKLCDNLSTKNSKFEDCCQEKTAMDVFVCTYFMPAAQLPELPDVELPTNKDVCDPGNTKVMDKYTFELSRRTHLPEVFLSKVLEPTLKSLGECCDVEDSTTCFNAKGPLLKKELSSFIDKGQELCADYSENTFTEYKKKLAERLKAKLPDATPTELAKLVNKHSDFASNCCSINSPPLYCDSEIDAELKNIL
Experimental: 1. Tris buffer: • 22.50 g Tris-HCI • 500 ml H2O
5. DBP (vitamin D binding protein) (human plasma)
2. Dextran Coated Charcoal Solution • (1) preparation of charcoal solution • Norit decolorizing neutral charcoal 2.0 g • Tris buffer 150 mL • Stirring • (2) preparation of dextran solution • Dextran T—70 0.2 g • Tris buffer 50 ml • (3) preparation of dextran coated charcoal solution • Slowly dripped the dextran solution into charcoal solution with stirring. • Kept refrigerated overnight. • Thirty minute before use, kept it on ice with continuous mixing. • This solution can be kept in 4° C. for 2 month.
4. DBP Solution • Human plasma diluted to 1:5000 with Tris buffer/gelatin solution
8. [^3H-26,27]-[…] Solution • Stock solution diluted in Tris buffer, 20,000 CPM/50 μl. (C) Assay
(D) Calculation: • The amount of 25(OH)D3 to displace 50 percent [3H]-25(OH)D3 was calculated as B50 for 25(OH)D3 DBP binding. The DBP binding of other compounds was calculated as B50 relative to a value of 1 for 25(OH)D3.

CYP24 mRNA = experiment: CYP24 transcriptional activation assay in U-937 cells (real time PCR); assay type: cell-based, human; details: six hours, normalized to GAPDH, 100 nM calcitriol set to 100%
Experimental: 1α,25(OH)2D3 1 mM reconstituted in isopropanol
• Sodium pyruvate • Non-essential amino acids • HEPES • 10% fetal bovine serum Phorbol 12-myristate 13-acetate (PMA) 24-well plate Isopropanol TRIzol® reagent (Invitrogen) Chloroform Ethanol Diethylpyrocarbonate treated dH2O Thermoscript™ RT-PCR System kit (Invitrogen) Human CYP24 TaqMan® Probe (Applied Biosystems Inc) Human GAPDH TaqMan® Probe (Applied Biosystems Inc) TaqMan® Universal Master Mix Probe (Applied Biosystems Inc) (ii) Procedure:
1. Cell Culture, Stimulation and Plating • Cultured U-937 cells in 4+RPMI media to a level of ≈80% confluence. Pelleted cells by centrifugation and resuspended to a concentration of 5×10^5 cells per 1 ml media. Treated U-937 cells with a final concentration of PMA of 20 ng/ml. To each well, of a 24-well plate, added 1 ml of cell suspension and incubated overnight at 37° C., in a humidified atmosphere containing 5% CO2, for adherence of cells to the wells.
2. Cell Treatment and TRIzol® Addition • Changed the media with 1 ml of fresh 4+RPMI media. Added 1 μl of the working solutions of 1, 10, and 100 μM of the compound being tested, in triplicate. Added 1 μl of isopropanol as a control, in triplicate. Incubated the cells for six hours at 37° C., in a humidified atmosphere containing 5% CO2, aspirated off the media and then added 1 ml of TRIzol® reagent. Transferred TRIzol® with cell lysate to a 1.7 ml microcentrifuge tube and stored at −80° C.
3. […] Determined the concentration of RNA using a spectrophotometer to measure the optical density of each sample, at a wavelength of 260 nm. […]
4. CYP24/GAPDH Real Time PCR • Determined the amount of CYP24 and GAPDH mRNA present in each sample using commercial TaqMan® probes, from Applied Biosystems Inc. (Foster City, Calif.). Detected both genes in the same 20 μl reaction, using an ABI PRISM 96-well optical reaction plate and cycle 50 times using an ABI Prism 7000 Sequence Detection System® (ABI). […]

IC50 [1]: > 3.5 µM
SMILES: C=C1/C(=C\C=C2/CCC[C@]3(C)C([C@H](C)C/C=C/C(=NOC)C(C)(C)C)=CC[C@@H]23)C[C@@H](O)C[C@@H]1O [(20R)-I(e)]
CYP24 mRNA induction, activity as % of that for calcitriol at 100 nM (CYP24 mRNA): 65%
